From patent US11840686B2, “Modulation of prekallikrein (PKK) expression” (Ionis Pharmaceuticals, Inc., priority 2013, dated 2023)
Strand notation (5' to 3'): a small letter for the sugar, then the base; units joined by * are phosphorothioate-linked, units joined directly phosphodiester-linked; [ ] holds rarer units or linkages, { } end groups; capitals alone tell only the bases. e = 2'-O-(2-methoxyethyl) (MOE); [5mC] = 5-methylcytosine; d = 2'-deoxy (DNA)

Test system: human PKK mRNA
Assay: Antisense inhibition of human PKK mRNA in HepaRG cells, 5,000 nM (Example 2)
Type: cell-based
Description: Additional antisense oligonucleotides were designed targeting a PKK nucleic acid and were tested for their effects on PKK mRNA in vitro.
The chimeric antisense oligonucleotides in the tables below were designed as 5-10-5 MOE gapmers, 4-9-4 MOE gapmers, 4-10-4 MOE gapmers, 4-10-3 MOE gapmers, 3-10-4 MOE gapmers, or 3-10-3 MOE gapmers. The 5-10-5 MOE gapmers are 20 nucleosides in length, wherein the central gap segment comprises of ten 2′-deoxynucleosides and is flanked by wing segments on the 5′ direction and the 3′ direction comprising five nucleosides each. The 4-9-4 MOE gapmers are 17 nucleosides in length, wherein the central gap segment comprises of nine 2′-deoxynucleosides and is flanked by wing segments on the 5′ direction and the 3′ direction comprising four nucleosides each. The 4-10-4 MOE gapmers are 18 nucleosides in length, wherein the central gap segment comprises of ten 2′-deoxynucleosides and is flanked by wing segments on the 5′ direction and the 3′ direction comprising four nucleosides each. The 4-10-3 MOE gapmers are 17 nucleosides in length, wherein the central gap segment comprises of ten 2′-deoxynucleosides and is flanked by wing segments on the 5′ direction and the 3′ direction comprising four and three nucleosides respectively. The 3-10-4 MOE gapmers are 17 nucleosides in length, wherein the central gap segment comprises often 2′-deoxynucleosides and is flanked by wing segments on the 5′ direction and the 3′ direction comprising three and four nucleosides respectively. The 3-10-3 MOE gapmers are 16 nucleosides in length, wherein the central gap segment comprises of ten 2′-deoxynucleosides and is flanked by wing segments on the 5′ direction and the 3′ direction comprising three nucleosides each. Each nucleoside in the 5′ wing segment and each nucleoside in the 3′ wing segment has a 2′-O-methoxyethyl modification. The internucleoside linkages throughout each gapmer are phosphorothioate linkages. All cytosine residues throughout each gapmer are 5-methylcytosines. “Start site” indicates the 5′-most nucleoside to which the gapmer is targeted in the human gene sequence. “Stop site” indicates the 3′-most nucleoside to which the gapmer is targeted in the human gene sequence.
Cultured HepaRG™ cells at a density of 20,000 cells per well were transfected using electroporation with 5,000 nM antisense oligonucleotide. After a treatment period of approximately 24 hours, RNA was isolated from the cells and PKK mRNA levels were measured by quantitative real-time PCR. Human primer probe set RTS3454 was used to measure mRNA levels. PKK mRNA levels were adjusted according to total RNA content, as measured by RIBOGREEN®. The antisense oligonucleotides were tested in a series of experiments that had similar culture conditions. Results are presented as percent inhibition of PKK, relative to untreated control cells.

[1] = HepaRG cells, electroporation, 5,000 nM antisense oligonucleotide, approx. 24 hours, primer probe set RTS3454, relative to untreated control cells, Table 12
[2] = HepaRG cells, 5,000 nM antisense oligonucleotide, 5-10-5 gapmers, Table 17
[3] = Table 7, HepaRG cells, electroporation with 5,000 nM antisense oligonucleotide, approx. 24 hours, PKK mRNA by RT-PCR (RTS3454), relative to untreated control cells
[4] = human PKK mRNA in HepaRG cells, 5-10-5 gapmers, Table 14
[5] = Table 9 experiment, HepaRG cells, 20,000 cells per well, electroporation with 5,000 nM antisense oligonucleotide, approx. 24 hours, PKK mRNA by RT-PCR (RTS3454), relative to untreated control cells
[6] = Table 10 experiment, HepaRG cells, 20,000 cells per well, electroporation with 5,000 nM antisense oligonucleotide, approx. 24 hours, PKK mRNA by RT-PCR (RTS3454), relative to untreated control cells
[7] = HepaRG cells, electroporation, 5,000 nM antisense oligonucleotide, approx. 24 hours, primer probe set RTS3454, relative to untreated control cells, Table 11
[8] = human PKK mRNA, HepaRG cells, 5-10-5 motif oligonucleotides targeting SEQ ID NO: 1 and 10
[9] = Table 13, human PKK mRNA in HepaRG cells, 5-10-5 gapmers
[10] = Table 8, HepaRG cells, electroporation with 5,000 nM antisense oligonucleotide, approx. 24 hours, PKK mRNA by RT-PCR (RTS3454), relative to untreated control cells

## 546395 (eT*eT*e[5mC]*eA*e[5mC]*dA*dA*d[5mC]*dA*d[5mC]*dA*d[5mC]*dA*dG*dT*e[5mC]*eA*eT*eG*eG; antisense) [compound 546395]
[1]
  % inhibition: 72%

## 547076 (eT*e[5mC]*eT*e[5mC]*eA*dA*dG*d[5mC]*dA*dG*d[5mC]*d[5mC]*dT*dA*dT*eT*eG*eT*eG*eT; antisense) [compound 547076]
[2]
  % inhibition: 14%

## 546236 (eG*eT*eT*eA*eA*dA*dA*dG*dG*d[5mC]*dT*dA*dT*dA*dT*e[5mC]*e[5mC]*eA*eG*eA; antisense) [compound 546236]
[3]
  % inhibition: 50%

## 547612 (antisense e[5mC]*e[5mC]*eT*eG*eT*dA*dA*d[5mC]*dA*dG*dT*dA*dT*d[5mC]*dA*e[5mC]*eT*eG*eT*eA) [compound 547612]
[4]
  % inhibition: 68%

## 546242 (eG*eG*eG*eT*eT*d[5mC]*dA*dG*dG*dT*dA*dA*dA*dG*dT*eT*e[5mC]*eT*eT*eT; antisense) [compound 546242]
[3]
  % inhibition: 8%

## 546352 (antisense e[5mC]*eA*e[5mC]*e[5mC]*eA*dG*dG*dT*dT*dG*d[5mC]*dT*d[5mC]*d[5mC]*d[5mC]*eT*eG*e[5mC]*eG*eG) [compound 546352]
[5]
  % inhibition: 75%
[6]
  % inhibition: 74%

## 546368 (antisense eG*eG*eT*eT*eG*dT*dA*dA*dA*dA*dA*dT*dT*dG*d[5mC]*e[5mC]*eT*eA*eG*eA) [compound 546368]
[7]
  % inhibition: 44%

## 546237 (e[5mC]*eA*eG*eG*eT*dT*dA*dA*dA*dA*dG*dG*d[5mC]*dT*dA*eT*eA*eT*e[5mC]*e[5mC]; antisense) [compound 546237]
[3]
  % inhibition: 64%

## 547024 (eG*eG*eA*eT*eT*dG*dG*dT*dG*dG*d[5mC]*dG*dG*dG*dA*eT*e[5mC]*eG*eG*eT; antisense) [compound 547024]
[2]
  % inhibition: 56%

## 546885 (eT*eA*eT*eG*eT*d[5mC]*dA*d[5mC]*dT*dG*dT*dA*d[5mC]*d[5mC]*dT*eA*eT*eA*eA*e[5mC]; antisense) [compound 546885]
[8]
  % inhibition: 46%

## 546707 (eG*e[5mC]*eA*eA*eG*dT*d[5mC]*dA*dA*dA*dG*dA*dG*dT*dG*eT*e[5mC]*e[5mC]*eA*e[5mC]; antisense) [compound 546707]
[1]
  % inhibition: 73%

## 547500 (antisense e[5mC]*e[5mC]*eT*eA*eG*dA*d[5mC]*dT*d[5mC]*dT*dG*dG*dA*d[5mC]*dT*eG*e[5mC]*eT*eT*e[5mC]) [compound 547500]
[7]
  % inhibition: 65%

## 547567 (eT*e[5mC]*e[5mC]*eA*e[5mC]*dT*d[5mC]*d[5mC]*dT*dA*dA*dG*dA*dA*dG*eT*eA*eT*eG*eG; antisense) [compound 547567]
[9]
  % inhibition: 60%

## 547516 (antisense eG*eA*eT*eG*e[5mC]*dA*dA*dA*dG*dA*dA*dG*dA*dT*dG*e[5mC]*e[5mC]*eA*e[5mC]*eT) [compound 547516]
[7]
  % inhibition: 48%

## 546838 (e[5mC]*eT*eA*eT*eA*dA*d[5mC]*dT*d[5mC]*dT*dA*dA*d[5mC]*dA*dG*eT*eA*eT*e[5mC]*eA; antisense) [compound 546838]
[9]
  % inhibition: 43%

## 547489 (antisense eA*eG*eA*e[5mC]*eA*d[5mC]*d[5mC]*dA*dG*dG*dT*dT*dG*d[5mC]*dT*e[5mC]*e[5mC]*e[5mC]*eT*eG) [compound 547489]
[7]
  % inhibition: 34%

## 547666 (eA*eT*e[5mC]*eA*e[5mC]*dT*dG*dT*dA*d[5mC]*d[5mC]*dT*dA*dT*dA*eA*e[5mC]*eT*eA*eT; antisense) [compound 547666]
[8]
  % inhibition: 71%

## 547651 (eT*eG*eT*eA*e[5mC]*d[5mC]*dT*dA*dT*dA*dA*d[5mC]*dA*dG*dT*eA*eT*e[5mC]*eA*e[5mC]; antisense) [compound 547651]
[8]
  % inhibition: 48%

## 547624 (antisense eA*eT*eG*eT*e[5mC]*dA*d[5mC]*dT*dG*dT*dA*d[5mC]*d[5mC]*dT*dA*eT*eA*eA*e[5mC]*eT) [compound 547624]
[4]
  % inhibition: 64%

## 546866 (eG*eT*eT*eT*e[5mC]*d[5mC]*dT*dA*dT*dA*dA*d[5mC]*dT*dA*dT*eA*eA*e[5mC]*eA*eA; antisense) [compound 546866]
[4]
  % inhibition: 35%

## 546749 (eG*e[5mC]*eT*eG*eG*dT*d[5mC]*d[5mC]*dT*dT*dG*dA*dA*d[5mC]*d[5mC]*e[5mC]*e[5mC]*eG*eT*eG; antisense) [compound 546749]
[9]
  % inhibition: 53%

## 546394 (eG*eT*e[5mC]*eA*eT*dG*dG*dA*dG*dA*dT*d[5mC]*dT*d[5mC]*dA*eG*eT*eT*eG*e[5mC]; antisense) [compound 546394]
[7]
  % inhibition: 71%

## 547450 (antisense e[5mC]*eT*e[5mC]*eT*eT*dT*dT*dA*dT*dT*dT*dG*dT*dG*dA*eG*eA*eA*eA*eG) [compound 547450]
[5]
  % inhibition: 71%
[6]
  % inhibition: 67%

## 547482 (antisense e[5mC]*e[5mC]*e[5mC]*e[5mC]*eT*dT*d[5mC]*dT*dT*dT*dA*dT*dA*dG*d[5mC]*e[5mC]*eA*eG*e[5mC]*eA) [compound 547482]
[5]
  % inhibition: 90%
[6]
  % inhibition: 65%

## 546290 (antisense e[5mC]*e[5mC]*e[5mC]*e[5mC]*eA*dA*dG*dA*dA*dG*dA*dG*dT*dT*dT*eG*eT*eT*e[5mC]*e[5mC]) [compound 546290]
[10]
  % inhibition: 86%

## 547035 (eT*eG*eG*eT*e[5mC]*d[5mC]*d[5mC]*dA*dA*dA*dT*dT*dG*dG*dA*eG*eT*eG*e[5mC]*eA; antisense) [compound 547035]
[2]
  % inhibition: 40%

## 547723 (eT*eA*eG*eA*eA*dT*dG*dG*d[5mC]*dA*dG*dG*dG*dT*dT*e[5mC]*eT*eG*eT*eG; antisense) [compound 547723]
[2]
  % inhibition: 53%

## 547760 (antisense eA*eT*e[5mC]*eA*eT*dG*d[5mC]*dT*dT*dA*d[5mC]*dT*dG*d[5mC]*dA*eA*eG*eT*eG*eA) [compound 547760]
[2]
  % inhibition: 19%

## 546842 (eT*e[5mC]*eA*e[5mC]*eT*dG*dT*d[5mC]*d[5mC]*dT*dA*dT*dA*dA*d[5mC]*eT*e[5mC]*eT*eA*eA; antisense) [compound 546842]
[9]
  % inhibition: 54%

## 547425 (eT*eA*eA*e[5mC]*e[5mC]*dA*dG*dA*dG*d[5mC]*dT*d[5mC]*d[5mC]*d[5mC]*dT*eT*eG*eT*eG*eT; antisense) [compound 547425]
[10]
  % inhibition: 85%

## 547746 (eG*eT*eT*eG*eG*dT*dG*dG*d[5mC]*dG*dG*dG*dA*dT*d[5mC]*eG*eG*eT*eG*eG; antisense) [compound 547746]
[2]
  % inhibition: 0%

## 547660 (eA*eA*e[5mC]*eT*eA*dT*dA*dA*d[5mC]*dA*dG*dT*dA*dT*d[5mC]*eA*e[5mC]*e[5mC]*eG*eT; antisense) [compound 547660]
[8]
  % inhibition: 68%

## 547683 (antisense eA*e[5mC]*eT*eA*eT*dA*dT*d[5mC]*dA*d[5mC]*dT*dG*dT*d[5mC]*d[5mC]*eT*eA*eT*eA*eA) [compound 547683]
HepaRG cells, 5,000 nM antisense oligonucleotide, 5-10-5 gapmers, Table 16
  % inhibition: 33%
